## O=[N+]([O-])c1ncccc1O
In THF, 278.15 K
  solubility (mole fraction): 0.213
In THF, 283.15 K
  solubility (mole fraction): 0.243
In THF, 288.15 K
  solubility (mole fraction): 0.274
In THF, 293.15 K
  solubility (mole fraction): 0.312
In THF, 298.15 K
  solubility (mole fraction): 0.35
In THF, 303.15 K
  solubility (mole fraction): 0.396
In THF, 308.15 K
  solubility (mole fraction): 0.446
In THF, 313.15 K
  solubility (mole fraction): 0.502
In THF, 318.15 K
  solubility (mole fraction): 0.57
In acetone, 278.15 K
  solubility (mole fraction): 0.157
In acetone, 283.15 K
  solubility (mole fraction): 0.184
In acetone, 288.15 K
  solubility (mole fraction): 0.219
In acetone, 293.15 K
  solubility (mole fraction): 0.259
In acetone, 298.15 K
  solubility (mole fraction): 0.304
In acetone, 303.15 K
  solubility (mole fraction): 0.354
In acetone, 308.15 K
  solubility (mole fraction): 0.41
In acetone, 313.15 K
  solubility (mole fraction): 0.474
In acetone, 318.15 K
  solubility (mole fraction): 0.544
In acetonitrile, 278.15 K
  solubility (mole fraction): 0.113
In acetonitrile, 283.15 K
  solubility (mole fraction): 0.141
In acetonitrile, 288.15 K
  solubility (mole fraction): 0.171
In acetonitrile, 293.15 K
  solubility (mole fraction): 0.207
In acetonitrile, 298.15 K
  solubility (mole fraction): 0.247
In acetonitrile, 303.15 K
  solubility (mole fraction): 0.299
In acetonitrile, 308.15 K
  solubility (mole fraction): 0.359
In acetonitrile, 313.15 K
  solubility (mole fraction): 0.428
In acetonitrile, 318.15 K
  solubility (mole fraction): 0.502
In ethanol, 278.15 K
  solubility (mole fraction): 0.0236
In ethanol, 283.15 K
  solubility (mole fraction): 0.0334
In ethanol, 288.15 K
  solubility (mole fraction): 0.0482
In ethanol, 293.15 K
  solubility (mole fraction): 0.0653
In ethanol, 298.15 K
  solubility (mole fraction): 0.0924
In ethanol, 303.15 K
  solubility (mole fraction): 0.128
In ethanol, 308.15 K
  solubility (mole fraction): 0.173
In ethanol, 313.15 K
  solubility (mole fraction): 0.232
In ethanol, 318.15 K
  solubility (mole fraction): 0.306
In ethyl acetate, 278.15 K
  solubility (mole fraction): 0.108
In ethyl acetate, 283.15 K
  solubility (mole fraction): 0.128
In ethyl acetate, 288.15 K
  solubility (mole fraction): 0.151
In ethyl acetate, 293.15 K
  solubility (mole fraction): 0.181
In ethyl acetate, 298.15 K
  solubility (mole fraction): 0.215
In ethyl acetate, 303.15 K
  solubility (mole fraction): 0.254
In ethyl acetate, 308.15 K
  solubility (mole fraction): 0.301
In ethyl acetate, 313.15 K
  solubility (mole fraction): 0.357
In ethyl acetate, 318.15 K
  solubility (mole fraction): 0.423
In isopropanol, 278.15 K
  solubility (mole fraction): 0.0158
In isopropanol, 283.15 K
  solubility (mole fraction): 0.0226
In isopropanol, 288.15 K
  solubility (mole fraction): 0.0318
In isopropanol, 293.15 K
  solubility (mole fraction): 0.0442
In isopropanol, 298.15 K
  solubility (mole fraction): 0.0621
In isopropanol, 303.15 K
  solubility (mole fraction): 0.0863
In isopropanol, 308.15 K
  solubility (mole fraction): 0.12
In isopropanol, 313.15 K
  solubility (mole fraction): 0.165
In isopropanol, 318.15 K
  solubility (mole fraction): 0.224
In methanol, 278.15 K
  solubility (mole fraction): 0.0395
In methanol, 283.15 K
  solubility (mole fraction): 0.0551
In methanol, 288.15 K
  solubility (mole fraction): 0.0807
In methanol, 293.15 K
  solubility (mole fraction): 0.111
In methanol, 298.15 K
  solubility (mole fraction): 0.153
In methanol, 303.15 K
  solubility (mole fraction): 0.206
In methanol, 308.15 K
  solubility (mole fraction): 0.271
In methanol, 313.15 K
  solubility (mole fraction): 0.352
In methanol, 318.15 K
  solubility (mole fraction): 0.446
In n-hexane, 278.15 K
  solubility (mole fraction): 0.00055
In n-hexane, 283.15 K
  solubility (mole fraction): 0.00077
In n-hexane, 288.15 K
  solubility (mole fraction): 0.00105
In n-hexane, 293.15 K
  solubility (mole fraction): 0.00144
In n-hexane, 298.15 K
  solubility (mole fraction): 0.00192
In n-hexane, 303.15 K
  solubility (mole fraction): 0.00266
In n-hexane, 308.15 K
  solubility (mole fraction): 0.00373
In n-hexane, 313.15 K
  solubility (mole fraction): 0.00522
In n-hexane, 318.15 K
  solubility (mole fraction): 0.00736
In n-propanol, 278.15 K
  solubility (mole fraction): 0.0299
In n-propanol, 283.15 K
  solubility (mole fraction): 0.0391
In n-propanol, 288.15 K
  solubility (mole fraction): 0.0523
In n-propanol, 293.15 K
  solubility (mole fraction): 0.0716
In n-propanol, 298.15 K
  solubility (mole fraction): 0.0947
In n-propanol, 303.15 K
  solubility (mole fraction): 0.127
In n-propanol, 308.15 K
  solubility (mole fraction): 0.17
In n-propanol, 313.15 K
  solubility (mole fraction): 0.224
In n-propanol, 318.15 K
  solubility (mole fraction): 0.292
In water, 278.15 K
  solubility (mole fraction): 0.00083
In water, 283.15 K
  solubility (mole fraction): 0.00107
In water, 288.15 K
  solubility (mole fraction): 0.00149
In water, 293.15 K
  solubility (mole fraction): 0.0021
In water, 298.15 K
  solubility (mole fraction): 0.00283
In water, 303.15 K
  solubility (mole fraction): 0.00393
In water, 308.15 K
  solubility (mole fraction): 0.00544
In water, 313.15 K
  solubility (mole fraction): 0.00753
In water, 318.15 K
  solubility (mole fraction): 0.0109

From BigSolDB 2.1
